# Where two headings read alike, the source gives them in different places.
# Legend:
# [1] = test system: Bax/Bak double knockout mouse embryonic fibroblast cells (MEF/DKO); experiment: FITC-Annexin V/PI cytotoxicity in Bax/Bak double knockout cells; assay type: cell-based; settings: 10 μM
# Protocol: MEF/WT and MEF/DKO cells were seeded in 24-well plate at a seeding density of half a million per well (in 1 ml of DMEM medium supplemented by 10% FCS). […] On the following day, floating cells were pooled with adherent cells harvested after brief incubation with 0.25% Trypsin/EDTA solution (Gibco/In-Vitrogen Inc.). Cells were centrifuged and supernatant was discarded, and cell pellet was re-suspended with 0.2 ml of Annexin-V binding buffer, followed by addition of 1 μl Annexin-FITC and 1 μl PI (propidium iodide). The percentage of viable cells was determined by a 3-color FACSort instrument and data analyzed by Flow-Jo program, scoring Annexin V-negative, PI-negative as viable cells.
# [2] = Liver microsomal stability; assay type: in vitro ADME, rat; settings: Table 6; rat liver microsomes, 1 h
# Text: Liver Microsomal Stability.
# Mcl-1 = Mcl-1 (Homo sapiens, UniProt Q07820); experiment: Competitive fluorescence polarization assay (FPA), Bim BH3 peptide; assay type: binding
# BCL-XL [3] = molecular target: T1, BCL-XL (Homo sapiens, UniProt Q07817); experiment: 1D 1H-NMR binding assay; set-up: key to 1D-^1H NMR: +++, Very Active; ++, Active; +, Mild; −, Weak; settings: for 1D-^1H NMR: BCL-XL 25 μM, compound 200 μM
# Protocol: By observing the aliphatic region of the spectra, binding could be readily detected due to chemical shift changes in active site methyl groups of Ile, Leu, Thr, Val or Ala (region between −0.8 and 0.3 ppm). All experiments were performed with a 600 MHz spectrometer Bruker Avance 600 equipped with four rf channels and z-axis pulse-field gradients.
# Target sequence in this assay (Q07817 whole entry): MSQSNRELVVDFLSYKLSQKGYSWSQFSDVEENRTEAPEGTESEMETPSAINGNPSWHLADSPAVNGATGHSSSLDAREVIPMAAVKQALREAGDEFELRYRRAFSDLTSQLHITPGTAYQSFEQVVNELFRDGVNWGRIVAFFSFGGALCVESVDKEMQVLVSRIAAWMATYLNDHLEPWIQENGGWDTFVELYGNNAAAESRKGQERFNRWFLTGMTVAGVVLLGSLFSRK
# BCL-XL [4] = molecular target: T1, BCL-XL; experiment: Competitive fluorescence polarization assay (FPA), Bak BH3 peptide; assay type: binding; set-up: 100 nM GST-BCL-XL ΔTM protein; settings: read-out: IC50 FPA Bcl-XL
# Protocol: For competitive binding assays, 100 nM GST-BCL-XL ΔTM protein was preincubated with the tested compound at varying concentrations in 47.5 μL PBS (pH=7.4) in 96-well black plates at room temperature for 10 min, then 2.5 μL of 100 nM FITC-labeled Bak BH3 peptide was added to produce a final volume of 50 μL. The wild-type and mutant Bak BH3 peptides were included in each assay plate as positive and negative controls, respectively. […] IC50 was determined by fitting the experimental data to a sigmoidal dose-response nonlinear regression model (SigmaPlot 10.0.1, Systat Software, Inc., San Jose, Calif., USA). Data reported are mean of three independent experiments±standard error (SE). […] Fluorescence polarization was measured after 10 min.
# Target sequence in this assay (Q07817 1-209 limits assumed): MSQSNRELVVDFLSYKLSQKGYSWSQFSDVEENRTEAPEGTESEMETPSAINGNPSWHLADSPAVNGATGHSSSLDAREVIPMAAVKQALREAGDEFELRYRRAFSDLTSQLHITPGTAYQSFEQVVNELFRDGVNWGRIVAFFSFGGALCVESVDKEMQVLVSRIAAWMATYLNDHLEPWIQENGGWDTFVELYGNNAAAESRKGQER
# [5] = test system: BP3 human B-cell lymphoma cell line; experiment: Annexin V-FITC and propidium iodide assay; assay type: cell-based; settings: Homo sapiens, B-cell, Table 3, Annexin V-FITC and propidium iodide assay, read-out: EC50 BP3
# Bcl-2 = Bcl-2 (Homo sapiens, UniProt P10415); experiment: Competitive fluorescence polarization assay (FPA), Bim BH3 peptide; assay type: binding
# H1299 cell line = experiment: Cell viability, ATP-LITE assay; assay type: cell-based, human; settings: Homo sapiens
# Protocol: (§1) The activity of the compounds against human cancer cell lines (PC3ML, H460, H1299, RS11846) were assessed by using the ATP-LITE assay (PerkinElmer). All cells were seeded in either F12 or RPMI1640 medium with 5 mM L-glutamine supplemented with 5% fetal bovine serum (Mediatech Inc.), penicillin and streptomycin (Omega). For maintenance, cells were cultured in 5% FBS. Cells plated into 96 well plates at varying initial densities depending on doubling time. H460 and H1299 plated at 2000 cells/well, A549 and PC3 at 3000 cells/well, and RS118456S at 10,000 cells/well. Compounds were diluted to final concentrations with 0.1% DMSO. Prior to dispensing compounds onto cells, fresh 5% media was placed into wells. Administration of compounds occurred 24 hours after seeding into the fresh media. Cell viability was evaluated using ATP-LITE reagent (PerkinElmer) after 72 hours of treatment. Data were normalized to the DMSO control-treated cells using Prism version 5.01 (Graphpad Software).
# PC3ML cells = experiment: Cell viability, ATP-LITE assay; assay type: cell-based, human; settings: Homo sapiens, PC3-ML
# Protocol: as §1
# B6Bcl-2 transgenic mice = settings: for Tox: Bcl-2 transgenic mouse, single ip injection 72 μmol/kg
# Protocol: Transgenic mice expressing BCL-2 have been described as the B6 line. The BCL-2 transgene res a minigene version of a t(14;18) translocation in which the human BCL-2 gene is fused with the immunoglobulin heavy-chain (IgH) locus and associated IgH enhancer. The transgene was propagated on the Balb/c background.
# After 24 hours, B6BCL2 mice were sacrificed by intraperitoneal injection of lethal dose of Avertin. Spleen was removed and weighed. […] Spleen tissue was fixed in z-FIX for 3 days and rinsed in PBS, and saved for histological analysis of spleen (H&E staining and TUNEL assay).
# [6] = test system: human lymphoma RS11846 cell line; experiment: Apoptosis, Annexin V-FITC and propidium iodide assay; assay type: cell-based; settings: Homo sapiens
# Protocol: The apoptotic activity of the compounds against RS11846 cells was assessed by staining with Annexin V- and propidium iodide (PI). Lymphoma cell line, RS11846, was cultured in RPMI 1640 medium (Mediatech Inc., Herndon, Va. 20171) containing 10% fetal bovine serum (Mediatech Inc., Herndon, Va. 20171) and Penicillin/Streptomycin (Mediatech Inc., Herndon, Va. 20171). […] The percentage of viable cells was determined by FITC-Annexin V- and propidium iodide (PI)-labeling, using an Apoptosis Detection kit (BioVision Inc.), and analyzing stained cells by flow cytometry (FACSort; Bectin-Dickinson, Inc.; Mountain View, Calif.). Cells that were annexin-V-negative and PI-negative were considered viable.
# [7] = test system: H460 human lung cell line; experiment: Cell viability, ATP-LITE assay; assay type: cell-based; settings: for EC50: Homo sapiens
# Protocol: as §1
# BCL-XL [8] = molecular target: T1, BCL-XL; experiment: Isothermal titration calorimetry (ITC); assay type: binding; settings: vs Apogossypol
# Protocol: Titrations were performed using a VP-ITC or ITC200 calorimeter from Microcal (Northampton, Mass.). BCL-XL was used at concentrations between 25 and 100 μM in 20 mM sodium phosphate buffer (pH 7.4) and 5-10% DMSO. Titrants were used at concentrations 10-15 fold of that of the protein in the same buffer. Titrations were carried out at 25° C. Data were analyzed using Microcal Origin software provided by the ITC manufacturer (Microcal, Northampton, Mass.).
# Target sequence in this assay (Q07817 whole entry): as the sequence (Q07817 whole entry) above
# RS11846 cell line = experiment: Cell viability, ATP-LITE assay; assay type: cell-based; settings: Homo sapiens, read-out: RS11846 EC50 (ATP-LITE assay)
# Protocol: as §1
# Bfl-1 = molecular target: T2, Bfl-1 (Homo sapiens, UniProt Q16548); experiment: Competitive fluorescence polarization assay (FPA); assay type: binding
# T2 sequence (Q16548 1-175): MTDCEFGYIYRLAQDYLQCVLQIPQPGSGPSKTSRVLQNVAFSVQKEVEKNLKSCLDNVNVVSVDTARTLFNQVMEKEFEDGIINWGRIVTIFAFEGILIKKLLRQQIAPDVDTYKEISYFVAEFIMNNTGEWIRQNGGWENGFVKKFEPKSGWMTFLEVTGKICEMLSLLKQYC
# Plasma stability = assay type: in vitro ADME, rat; settings: Table 6; rat plasma, 1 h
# Protocol: Plasma Stability. A 20 μL aliquot of a 10 mM solution in DMSO of the test compound was added to 2.0 mL of heparinized rat plasma (Lampire, P1-150N) to obtain a 100 μM final solution. The mixture was incubated for 1 h at 37.5° C. Aliquots of 100 μL were taken (0, 30 min, 1 h) and diluted with 200 μL of MeOH containing internal standard.
# [9] = NCI-H1299, heading: EC50 H1299, Table 3, ATP-LITE assay, read-out: EC50 H1299
# [10] = Table 3, ATP-LITE assay, heading: EC50 PC3ML, read-out: EC50 PC3ML
# [11] = Table 3, Annexin V-FITC and propidium iodide assay, heading: EC50 RS11846, read-out: EC50 RS11846
# [12] = NCI-H460, Table 3, ATP-LITE assay, read-out: EC50 H460
# Mcl-1, sequence (Q07820 whole entry): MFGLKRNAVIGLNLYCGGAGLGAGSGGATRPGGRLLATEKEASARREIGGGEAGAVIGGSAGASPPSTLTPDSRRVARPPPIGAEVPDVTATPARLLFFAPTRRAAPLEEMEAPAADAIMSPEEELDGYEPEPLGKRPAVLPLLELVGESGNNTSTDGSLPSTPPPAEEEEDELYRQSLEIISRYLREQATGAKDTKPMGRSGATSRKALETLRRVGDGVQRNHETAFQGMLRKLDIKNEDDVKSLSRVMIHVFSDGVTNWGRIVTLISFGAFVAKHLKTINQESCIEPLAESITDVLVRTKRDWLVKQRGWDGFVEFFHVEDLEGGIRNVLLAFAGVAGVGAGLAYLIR
# Bcl-2, sequence (P10415 whole entry): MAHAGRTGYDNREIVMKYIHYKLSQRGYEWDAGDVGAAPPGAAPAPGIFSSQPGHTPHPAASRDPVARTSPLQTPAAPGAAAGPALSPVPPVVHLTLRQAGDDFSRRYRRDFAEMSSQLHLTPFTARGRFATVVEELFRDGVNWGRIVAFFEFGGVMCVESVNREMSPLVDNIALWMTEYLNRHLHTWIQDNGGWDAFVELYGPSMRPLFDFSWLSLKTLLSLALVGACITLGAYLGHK
Structure (SMILES),Microsomal Stability (T = 1 h) [2],IC50 (Mcl-1),1D-^1H NMR (BCL-XL [3]; Table 3),IC50 (BCL-XL [4]),IC50 (Bcl-2),EC50 (H1299 cell line; [9]),EC50 (PC3ML cells; [10]),Tox (B6Bcl-2 transgenic mice),"EC50 [6, 11]","EC50 [7, 12]",Plasma stability (T = 1 h) (Plasma stability),further results
"Cc1cc2c(C(=O)NCCc3cccc(Cl)c3)c(O)c(O)cc2c(O)c1-c1c(C)cc2c(C(=O)NCCc3cccc(Cl)c3)c(O)c(O)cc2c1O [Compound 8p, N^5,N^5′-bis(3-chlorophenethyl)-1,1′,6,6′,7,7′-hexahydroxy-3,3′-dimethyl-2,2′-binaphthyl-5,5′-dicarboxamide]",90%,3200 nM,+++,6300 nM,4400 nM,7800 nM,3200 nM,4+,4600 nM,990 nM,,"MEF/DKO cells killed [1]: 20-35%; EC50 [5]: 410 nM; percentage of maximum reduction in spleen weight (maximal biological activity) (B6Bcl-2 transgenic mice; single ip 72 μmol/kg, maximum shrinkage no more than 50%): 85-95%; spleen weight reduction (B6Bcl-2 transgenic mice; single mouse, single ip 72 μmol/kg): more than 40%"
"Cc1ccc(CC(=O)c2c(O)c(O)cc3c(O)c(-c4c(C)cc5c(C(=O)Cc6ccc(C)cc6)c(O)c(O)cc5c4O)c(C)cc23)cc1 [Compound XII, 1,1′-(1,1′,6,6′,7,7′-hexahydroxy-3,3′-dimethyl-2,2′-binaphthyl-5,5′-diyl)bis(2-p-tolylethanone)]",,,,,,,,,,,,"times more potent than Apogossypol, ITC Bcl-XL (BCL-XL [8]): 40; 1D ^1H-NMR Binding Assay (BCL-XL) (BCL-XL [3]; Table 9): ++; EC50 (H1299 cell line; NCI-H1299, read-out: H1299 EC50): 1700 nM; EC50 (PC3ML cells; read-out: PC3ML EC50, Table 9): 1900 to 4600 nM; EC50 ([6]; read-out: RS11846 EC50 (Annexin V- and propidium iodide assay), Table 9): 3000 to 5500 nM; EC50 (RS11846 cell line): 2200 nM; EC50 ([7]; NCI-H460, read-out: H460 EC50): 820 nM; times more potent than Apogossypol, H460 ([7]; vs Apogossypol): 4-5"
"Cc1cc2c(C(=O)NC3Cc4ccccc4C3)c(O)c(O)cc2c(O)c1-c1c(C)cc2c(C(=O)NC3Cc4ccccc4C3)c(O)c(O)cc2c1O [Compound 8s, N^5,N^5′-bis(2,3-dihydro-1H-inden-2-yl)-1,1′,6,6′,7,7′-hexahydroxy-3,3′-dimethyl-2,2′-binaphthyl-5,5′-dicarboxamide]",,350 nM,++,850 nM,700 nM,7100 nM,3000 nM,,4100 nM,940 nM,,EC50 ([5]; heading: EC50 BP3): 1100 nM; IC50 (Bfl-1): 670 nM
"Cc1cc(C)c(CNC(=O)c2c(O)c(O)cc3c(O)c(-c4c(C)cc5c(C(=O)NCc6c(C)cc(C)cc6C)c(O)c(O)cc5c4O)c(C)cc23)c(C)c1 [Compound 8j, 1,1′,6,6′,7,7′-hexahydroxy-3,3′-dimethyl-N^5,N^5′-bis(2,4,6-trimethylbenzyl)-2,2′-binaphthyl-5,5′-dicarboxamide]",,1100 nM,++,800 nM,700 nM,,,,,,,
"Cc1cc2c(CC3CCCC3)c(O)c(O)cc2c(O)c1-c1c(C)cc2c(CC3CCCC3)c(O)c(O)cc2c1O [Compound 12c, 5,5′-bis(cyclopentylmethyl)-3,3′-dimethyl-2,2′-binaphthyl-1,1′,6,6′,7,7′-hexaol]",75%,,,,,,,1+,,,81%,"1D-^1H NMR (BCL-XL [3]; Table 4): +; EC50 (H1299 cell line; NCI-H1299, ATP-LITE assay, read-out: EC50 H1299): 10900 nM; EC50 (PC3ML cells; ATP-LITE assay, read-out: EC50 PC3ML): 11200 nM; signs of toxicity (B6Bcl-2 transgenic mice; 72 μmol/kg and even 120 μmol/kg): no significant signs of toxicity; EC50 ([6]; Annexin V-FITC and propidium iodide assay, read-out: EC50 RS11846): 4500 nM; EC50 ([7]; NCI-H460, ATP-LITE assay, read-out: EC50 H460): 1800 nM"
"Cc1cc2c(C(=O)NCCc3ccccc3)c(O)c(O)cc2c(O)c1-c1c(C)cc2c(C(=O)NCCc3ccccc3)c(O)c(O)cc2c1O [Compound 8n, 1,1′,6,6′,7,7′-hexahydroxy-3,3′-dimethyl-N^5,N^5′-diphenethyl-2,2′-binaphthyl-5,5′-dicarboxamide]",60%,300 nM,++,800 nM,150 nM,,,,,,63%,
